From patent US6555714B1, “Inhibitors of hydroxyphenylpyruvate dioxygenase and an assay for identification of inhibitors” (Hoechst Aktiengesellschaft, priority 1993, dated 2003)
“And” between values parts separate entries of the source, which are not always exact repeats. Identical values can stand only once.

Legend:
[1] = target: anabolic plant HPPD (p-hydroxyphenylpyruvate dioxygenase) from maize (Zea mays, UniProt A0A1D6H1G0); assay type: biochemical; details: for IC50: Table 1 of compounds of formula (I), HPPD inhibition, IC50 is a molar concentration
anabolic plant HPPD (p-hydroxyphenylpyruvate dioxygenase) from maize, sequence (A0A1D6H1G0 entry or part of it): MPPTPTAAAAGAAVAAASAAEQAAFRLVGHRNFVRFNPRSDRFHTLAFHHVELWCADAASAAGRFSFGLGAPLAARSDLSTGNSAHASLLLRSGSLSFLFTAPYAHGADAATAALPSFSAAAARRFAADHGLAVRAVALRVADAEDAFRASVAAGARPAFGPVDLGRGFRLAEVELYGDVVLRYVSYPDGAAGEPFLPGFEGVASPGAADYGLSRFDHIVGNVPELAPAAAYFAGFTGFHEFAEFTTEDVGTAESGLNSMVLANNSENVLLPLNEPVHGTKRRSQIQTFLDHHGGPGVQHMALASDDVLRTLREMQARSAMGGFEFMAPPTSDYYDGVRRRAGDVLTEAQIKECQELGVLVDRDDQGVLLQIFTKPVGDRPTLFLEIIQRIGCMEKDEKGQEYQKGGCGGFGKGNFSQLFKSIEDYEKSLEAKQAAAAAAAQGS
Procedure: A modified form of the method for measuring catabolic HPPDs from human liver has been described by Lindblad (Lindblad, B. (1971) Clin. Chim. Acta 34, 113-121). End-point measurements are used in this case for detecting ^14C—CO2, which is liberated from ^14C-p-hydroxyphenylpyruvate by the enzymatic activity of HPPD.
To enrich the anabolic HPPD from plant tissues, young etiolated maize plants were homogenized in extraction buffer (20 mM phosphate buffer pH 7.0; 0.14 M KCl; 0.1 mg/ml glutathione and 1% insoluble polyvinylpyrrolidone) for 3×10 seconds, for example in a Waring blender. The extract was filtered (all other isolation steps were carried out at 4° C.) and centrifuged (20 minutes; 10,000 g). The supernatant was subjected to fractional ammonium sulfate precipitation. […] At this stage, it was possible to store the enzyme at −80° C. following dialysis in a suitable buffer, such as, for example, 20 mM phosphate buffer pH 7.0; 0.14 M KCl; 0.1 mg/ml glutathione.
The enzyme assays were performed in 20 ml polyethylene screw-top containers. Two hypodermic needles (0.9×40 mm) were pushed through the screw-top cap. One of the hypodermic needles was bent to form a hook onto which a small filter paper disk of diameter 10 mm was placed. The filter paper was moistened with 25 μl of methylbenzethonium hydroxide (Sigma). The second hypodermic needle was used for injecting start and stop solution into the screw-top container.
The enzyme reaction mix contained:
1 ml of 0.1 M phosphate buffer, pH 7.3;
2 g/l of bovine liver catalase;
100 μl of a mixture of 3 mM dichlorophenol-indophenol and
150 mM glutathione (reduced);
25 μl of acetone (or potential inhibitors dissolved in acetone) and
enzyme in a total volume of 1,635 μl.
After preincubation for 5 minutes at 30° C., the reaction was started by injecting 800 μl of ^14C-p-hydroxyphenylpyruvate. The reaction was stopped by injecting 600 μl of 1 N H2SO4, incubation was continued for 15 minutes, and the radioactivity which was liberated was determined on the small filter paper disks in a liquid scintillation counter.
(§1) FEBS-Letters, 1993, 318 (2), 162-166.

[2] = test system: Lemna gibba; experiment: Growth inhibition of Lemna; assay type: in vivo; details: for inhibition at 100 µM: 10^−4 M; for inhibition at 10 µM: 10^−5 M; for inhibition at 1 µM: 10^−6 M
Text: as §1

[3] = test system: Lemna gibba; experiment: Neutralization of the effect of SC-0051 by homogentisic acid, number of Lemna gibba plants; assay type: in vivo; details: day six
Procedure: HPPD catalyzes the transformation of p-hydroxyphenylpyruvate to homogentisic acid. If HPPD inhibition is responsible for the herbicidal activity of an inhibitor, then it should be possible to neutralize the herbicidal effect by supplementation with homogentisic acid. […] The plant was grown in a sterile aqueous medium supplemented as described in Table 1.
Batches of three Lemna plants in 100 ml of sterile medium were incubated for six days with sterile-filtered supplements. […] The number of newly formed plants was determined on day six.

[4] = test system: plastoquinone biosynthesis in wheat; experiment: Incorporation of radioactivity from 14C-tyrosine into plastoquinone in wheat (thin-layer chromatography); assay type: in vivo; details: wheat plants sprayed with 100 g/ha in screening formulation, FIG. 1
Procedure: Thin-layer chromatography analysis of the incorporation of radioactivity from ^14C-tyrosine into plastoquinone. […] The lipophilic metabolites of the wheat were extracted using chloroform, separated on silica gel 60 HPTLC plates using chloroform: diethyl ether (99:1), and the radioactivity was analyzed by thin-layer scanner.

## 2-(2,4-Dichlorobenzoyl)-1,4-quinone [Example No. 91]
[1]
  IC50: 0.018 µM

## Cc1cc(Cl)cc(C(=O)c2ccc(S(C)(=O)=O)cc2Cl)c1O [Example No. 100, 2,5′-Dichloro-2′-hydroxy-3′-methyl-4-methylsulfonylbenzophenone]
other
  melting point: 175 to 180 °C
[2]
  inhibition at 100 µM: 98%
  inhibition at 10 µM: 96%
  inhibition at 1 µM: 92%
[1]
  IC50: 0.0062 µM

## CS(=O)(=O)c1ccc(C(=O)c2c(O)cc(Cl)cc2Cl)c(Cl)c1 [Example No. 183, 2,2′,4′-Trichloro-6′-hydroxy-4-methylsulfonylbenzophenone]
other
  melting point: 123 to 126 °C and 123 to 125 °C
[2]
  inhibition at 100 µM: 98%
  inhibition at 10 µM: 82%
  inhibition at 1 µM: 81%
[1]
  IC50: 0.0048 µM

## CS(=O)(=O)c1ccc(C(=O)C2C(=O)CCCC2=O)c(Cl)c1 [SC-0051, 2-(2-chloro-4-methanesulfonylbenzoyl)-1,3-cyclohexanedione]
[3]; 10^−7 M SC-0051, medium supplemented with 1 mM HGA
  Number of L. gibba plants: 32
[3]; 10^−7 M SC-0051, medium supplemented with 1 mM HPPD
  Number of L. gibba plants: 2
[3]; 10^−7 M SC-0051, no supplementation of the medium, start three plants
  Number of L. gibba plants: 3
[4]
  Plastoquinone biosynthesis (incorporation of radioactivity from tyrosine into plastoquinone): inhibited

## CC1(C)CON(Cc2ccccc2Cl)C1=O [clomazone, reference compound]
[1]; partially purified maize HPPD, FIG. 2
  Inhibition of HPPD (in words): no inhibitory action

## CS(=O)(=O)c1ccc(C(=O)c2cc(C(=O)O)ccc2O)c(Cl)c1 [compound 88]
other
  melting point: 254 to 256 °C
[1]
  IC50: 0.07 µM
